Assay results taken from patent US20100041089A1, “IMPROVED METHOD FOR DETECTING CHEMICAL […]” (priority 2006, published 2010).

Test system: yeast genes (expressed mRNA)
Assay: DNA chip measurement of expressed mRNA of yeast genes after culture with a toxic chemical substance
Type: cell-based, Saccharomyces cerevisiae S288C
Method in brief: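 Fluorescence ratio, treated over untreated, read by chip scanner; ratio of two or more counted significant. Cells: S288C yeast, YPD, 25° C, chemical added at log phase for 2 h at growth-inhibiting, sublethal level. Cy3/Cy5-labeled cDNA from oligo-dT-purified mRNA.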

**Q.** Which “The level of expressed mRNA in the presence of chemical substance/The level of expressed mRNA in the absence of chemical substance” value (yeast gene YAL053W, cultured two hours with substance) does the source give for `CN(C)C(=S)SSC(=S)N(C)C` [(10), Tetramethylthiuram disulfide] here?
**A.** Its value is 0.9.

**Q.** What about the “The level of expressed mRNA in the presence of chemical substance/The level of expressed mRNA in the absence of chemical substance” value (yeast gene YAR028W, cultured two hours with substance) of the same compound?
**A.** The value was 0.9.

**Q.** What about the “The level of expressed mRNA in the presence of chemical substance/The level of expressed mRNA in the absence of chemical substance” value (yeast gene YBL043W) of the same compound?
**A.** The value was 14.7.

**Q.** What about the “The level of expressed mRNA in the presence of chemical substance/The level of expressed mRNA in the absence of chemical substance” value (yeast gene YBL048W, cultured two hours with substance) of the same compound?
**A.** The value was 4.4.

**Q.** What about the “The level of expressed mRNA in the presence of chemical substance/The level of expressed mRNA in the absence of chemical substance” value (yeast gene YBL078C) of the same compound?
**A.** Its value is 15.2.

**Q.** And the “The level of expressed mRNA in the presence of chemical substance/The level of expressed mRNA in the absence of chemical substance” value (yeast gene YBL107C, cultured two hours with substance)?
**A.** Its value is 3.1.

**Q.** What about the “The level of expressed mRNA in the presence of chemical substance/The level of expressed mRNA in the absence of chemical substance” value (yeast gene YBR008C (detoxification protein gene)) of the same compound?
**A.** The value was 21.1.

**Q.** What about the “The level of expressed mRNA in the presence of chemical substance/The level of expressed mRNA in the absence of chemical substance” value (yeast gene YBR008C (transport facilitation protein gene)) of the same compound?
**A.** The value was 21.1.

**Q.** What about the “The level of expressed mRNA in the presence of chemical substance/The level of expressed mRNA in the absence of chemical substance” value (yeast gene YBR046C) of the same compound?
**A.** Its value is 6.2.

**Q.** What about the “The level of expressed mRNA in the presence of chemical substance/The level of expressed mRNA in the absence of chemical substance” value (yeast gene YBR072W (stress protein genes)) of the same compound?
**A.** The value was 43.4.

**Q.** What about the “The level of expressed mRNA in the presence of chemical substance/The level of expressed mRNA in the absence of chemical substance” value (yeast gene YBR099C, cultured two hours with substance) of the same compound?
**A.** The value was 12.9.

**Q.** And the “The level of expressed mRNA in the presence of chemical substance/The level of expressed mRNA in the absence of chemical substance” value (yeast gene YCL027W)?
**A.** Its value is 16.3.

**Q.** And the “The level of expressed mRNA in the presence of chemical substance/The level of expressed mRNA in the absence of chemical substance” value (yeast gene YCL069W (detoxification protein gene))?
**A.** The value was 6.9.

**Q.** And the “The level of expressed mRNA in the presence of chemical substance/The level of expressed mRNA in the absence of chemical substance” value (yeast gene YCL069W (transport facilitation protein gene))?
**A.** Its value is 6.9.

**Q.** What about the “The level of expressed mRNA in the presence of chemical substance/The level of expressed mRNA in the absence of chemical substance” value (yeast gene YCR102C, cultured two hours with substance) of the same compound?
**A.** Its value is 61.5.

**Q.** And the “The level of expressed mRNA in the presence of chemical substance/The level of expressed mRNA in the absence of chemical substance” value (yeast gene YDL021W, cultured for two hours with substance)?
**A.** The value was 7.4.

**Q.** What about the “The level of expressed mRNA in the presence of chemical substance/The level of expressed mRNA in the absence of chemical substance” value (yeast gene YDL059C, DNA repair protein genes, cultured two hours with substance) of the same compound?
**A.** Its value is 7.8.

**Q.** And the “The level of expressed mRNA in the presence of chemical substance/The level of expressed mRNA in the absence of chemical substance” value (yeast gene YDL072C, cultured two hours with substance)?
**A.** The value was 1.5.

**Q.** What about the “The level of expressed mRNA in the presence of chemical substance/The level of expressed mRNA in the absence of chemical substance” value (yeast gene YDL204W, cultured two hours with substance) of the same compound?
**A.** Its value is 2.0.

**Q.** What about the “The level of expressed mRNA in the presence of chemical substance/The level of expressed mRNA in the absence of chemical substance” value (yeast gene YDL218W, cultured two hours with substance) of the same compound?
**A.** The value was 12.6.

**Q.** And the “The level of expressed mRNA in the presence of chemical substance/The level of expressed mRNA in the absence of chemical substance” value (yeast gene YDL222C, cultured two hours with substance)?
**A.** Its value is 1.0.

**Q.** What about the “The level of expressed mRNA in the presence of chemical substance/The level of expressed mRNA in the absence of chemical substance” value (yeast gene YDL243C) of the same compound?
**A.** The value was 29.6.

**Q.** What about the “The level of expressed mRNA in the presence of chemical substance/The level of expressed mRNA in the absence of chemical substance” value (yeast gene YDL243C, cultured for two hours with substance) of the same compound?
**A.** The value was 29.6.

**Q.** What about the “The level of expressed mRNA in the presence of chemical substance/The level of expressed mRNA in the absence of chemical substance” value (yeast gene YDR031W, cultured two hours with substance) of the same compound?
**A.** Its value is 2.7.

**Q.** And the “The level of expressed mRNA in the presence of chemical substance/The level of expressed mRNA in the absence of chemical substance” value (yeast gene YDR056C, cultured two hours with substance)?
**A.** The value was 2.3.

**Q.** What about the “The level of expressed mRNA in the presence of chemical substance/The level of expressed mRNA in the absence of chemical substance” value (yeast gene YDR069C) of the same compound?
**A.** The value was 4.5.

**Q.** What about the “The level of expressed mRNA in the presence of chemical substance/The level of expressed mRNA in the absence of chemical substance” value (yeast gene YDR210W, cultured two hours with substance) of the same compound?
**A.** The value was 1.0.

**Q.** And the “The level of expressed mRNA in the presence of chemical substance/The level of expressed mRNA in the absence of chemical substance” value (yeast gene YDR258C (stress protein genes))?
**A.** The value was 13.3.

**Q.** What about the “The level of expressed mRNA in the presence of chemical substance/The level of expressed mRNA in the absence of chemical substance” value (yeast gene YDR258C, mitochondria-located protein gene) of the same compound?
**A.** The value was 13.3.

**Q.** What about the “The level of expressed mRNA in the presence of chemical substance/The level of expressed mRNA in the absence of chemical substance” value (yeast gene YDR330W, cultured two hours with substance) of the same compound?
**A.** Its value is 2.6.

**Q.** And the “The level of expressed mRNA in the presence of chemical substance/The level of expressed mRNA in the absence of chemical substance” value (yeast gene YDR353W)?
**A.** Its value is 5.1.

**Q.** What about the “The level of expressed mRNA in the presence of chemical substance/The level of expressed mRNA in the absence of chemical substance” value (yeast gene YDR391C, cultured two hours with substance) of the same compound?
**A.** The value was 2.7.

**Q.** What about the “The level of expressed mRNA in the presence of chemical substance/The level of expressed mRNA in the absence of chemical substance” value (yeast gene YDR411C, cultured two hours with substance) of the same compound?
**A.** Its value is 1.0.

**Q.** What about the “The level of expressed mRNA in the presence of chemical substance/The level of expressed mRNA in the absence of chemical substance” value (yeast gene YDR486C, cultured two hours with substance) of the same compound?
**A.** Its value is 5.8.

**Q.** What about the “The level of expressed mRNA in the presence of chemical substance/The level of expressed mRNA in the absence of chemical substance” value (yeast gene YDR511W, cultured two hours with substance) of the same compound?
**A.** Its value is 2.2.

**Q.** And the “The level of expressed mRNA in the presence of chemical substance/The level of expressed mRNA in the absence of chemical substance” value (yeast gene YDR533C, cultured two hours with substance)?
**A.** Its value is 12.7.

**Q.** What about the “The level of expressed mRNA in the presence of chemical substance/The level of expressed mRNA in the absence of chemical substance” value (yeast gene YDR545W, cultured two hours with substance) of the same compound?
**A.** Its value is 0.7.

**Q.** And the “The level of expressed mRNA in the presence of chemical substance/The level of expressed mRNA in the absence of chemical substance” value (yeast gene YEL001C, cultured two hours with substance)?
**A.** Its value is 1.2.

**Q.** And the “The level of expressed mRNA in the presence of chemical substance/The level of expressed mRNA in the absence of chemical substance” value (yeast gene YER004W, cultured two hours with substance)?
**A.** Its value is 2.9.

**Q.** What about the “The level of expressed mRNA in the presence of chemical substance/The level of expressed mRNA in the absence of chemical substance” value (yeast gene YER035W, cultured two hours with substance) of the same compound?
**A.** Its value is 1.4.

**Q.** And the “The level of expressed mRNA in the presence of chemical substance/The level of expressed mRNA in the absence of chemical substance” value (yeast gene YER038C, cultured two hours with substance)?
**A.** Its value is 2.5.

**Q.** And the “The level of expressed mRNA in the presence of chemical substance/The level of expressed mRNA in the absence of chemical substance” value (yeast gene YER069W)?
**A.** Its value is 10.4.

**Q.** And the “The level of expressed mRNA in the presence of chemical substance/The level of expressed mRNA in the absence of chemical substance” value (yeast gene YER069W, mitochondria-located protein gene)?
**A.** The value was 10.4.

**Q.** And the “The level of expressed mRNA in the presence of chemical substance/The level of expressed mRNA in the absence of chemical substance” value (yeast gene YER079W, cultured two hours with substance)?
**A.** The value was 3.4.

**Q.** And the “The level of expressed mRNA in the presence of chemical substance/The level of expressed mRNA in the absence of chemical substance” value (yeast gene YER106W, cultured two hours with substance)?
**A.** The value was 1.8.

**Q.** And the “The level of expressed mRNA in the presence of chemical substance/The level of expressed mRNA in the absence of chemical substance” value (yeast gene YER158C, cultured two hours with substance)?
**A.** Its value is 1.6.

**Q.** And the “The level of expressed mRNA in the presence of chemical substance/The level of expressed mRNA in the absence of chemical substance” value (yeast gene YER163C, cultured two hours with substance)?
**A.** The value was 3.4.

**Q.** And the “The level of expressed mRNA in the presence of chemical substance/The level of expressed mRNA in the absence of chemical substance” value (yeast gene YER175C, cultured two hours with substance)?
**A.** Its value is 11.5.

**Q.** And the “The level of expressed mRNA in the presence of chemical substance/The level of expressed mRNA in the absence of chemical substance” value (yeast gene YFL006W, cultured two hours with substance)?
**A.** The value was 1.7.
